Experimental findings from EPA's ToxValDB 9.5 (doi:10.2903/j.efsa.2012.2522) are described below.

SMILES strings stand for the structures. In brackets after ≈: the same amount, converted by molar mass. Bounds are passed on as bounds.

One data set concerns Folsomia candida. As to conditions: chronic/long-term.
For a further data set, the system named is Bibionidae. As to conditions: chronic/long-term; duration: 28 days.
The next data set relates to Daphnia magna. The note with it: chronic/long-term; duration: 21 days; reproduction.
The next data set concerns Pimephales promelas. As to conditions: chronic/long-term; duration: 33 days; growth.
In the next data set the test system is Apis mellifera. The note with it: acute, mortality.
Another data set relates to Cyprinus carpio. As to conditions: acute; duration: 96 hours; mortality.
[1] abbreviates: reproduction developmental, body weight.

One may read the NOAEL as the highest dose or exposure tested at which no adverse effect was seen.

On to `Cn1cc(C(=O)Nc2ccccc2-c2cc(F)c(F)c(F)c2)c(C(F)F)n1` [Fluxapyroxad], for which the NOAEL with Oryctolagus sp. (developmental, development) is 25 mg/kg-day; in the data set on Rattus norvegicus (chronic, duration: 2 years, organ weight) it was 2.1 mg/kg-day; in the data set with Rattus norvegicus (setting [1]) it was 25 mg/kg-day; with Rattus norvegicus (subchronic, duration: 90 days, oral, organ weight) it was 6 mg/kg-day. Besides, the LD50 is above 2000 mg/kg-day in the data set with Anas platyrhynchos (acute, oral, unspecified, mortality); above 2000 mg/kg-day with Colinus virginianus (acute, oral, mortality); above 2000 mg/kg-day in the data set with Rattus norvegicus (acute, oral, mortality); above 100 µg/piece in the data set on Apis mellifera (dermal); above 111 µg/piece with Apis mellifera (oral, unspecified). Moreover, the NOEC is 33.6 mg/kg-day in the data set on Anas platyrhynchos (reproductive); 2.99 mg/kg in the data set with Folsomia candida; 75.9 mg/L in the data set on Bibionidae; 21.3 mg/kg in the data set with Tagia sp. (chronic/long-term, duration: 56 days); 74.6 mg/kg-day in the data set on Colinus virginianus (reproduction developmental); 0.5 mg/L with Daphnia magna. Also, the NOEC in the data set with Pimephales promelas came out at 0.0359 mg/L. Also, the LC50 in the data set with Anas platyrhynchos (short-term, oral, feed, mortality) is above 1720 mg/kg-day; with Tagia sp. (acute, mortality), above 1000 mg/kg; with Colinus virginianus (acute, oral, diet, mortality) it was above 912 mg/kg-day; in the data set with Cyprinus carpio, 0.29 µg/mL (≈ 0.761 µM).

In turn, `O=C(O)c1cn[nH]c1C(F)F` [1H-3-Difluoromethylpyrazole-4-carboxylic acid] displayed an NOAEL with Oryctolagus sp. (setting [1]) of 300 mg/kg-day.

For the molecule `Cn1cc(C(=O)O)c(C(F)F)n1` [3-(Difluoromethyl)-1-methyl-1H-pyrazole-4-carboxylic acid], in the data set with Oryctolagus sp. (reproduction developmental, no effects), the NOAEL is 250 mg/kg-day.
